Read-outs that look alike come from different tables or passages of the source.
How the values were obtained:
S1P5 = S1P5 (Homo sapiens, UniProt Q9H228); assay: [35S]-GTPγS binding assay, S1P5; assay type: biochemical; details: membranes of CHO cells expressing recombinant S1P receptors; for Emax: control S1P, read-out: S1P5 % Efficacy
Method: (§1) Cell Membrane Preparations
(§2) CHO cells expressing recombinant S1P receptors were cultured 500 cm^2 culture trays and once confluent, rinsed and detached with cell-lifting buffer (10 mM HEPES, 154 mM NaCl, 6.85 mM EDTA, pH 7.4). Cells were then pelleted by centrifugation, resuspended, and homogenized in membrane preparation buffer (10 mM HEPES and 10 mM EDTA, pH 7.4) using a Polytron PT 1200E homogenizer (Kinematica, Luzern, Switzerland). Cellular proteins were pelleted by centrifugation at 48,000×g at 4° C. for 30 minutes. The resulting supernatant was discarded, and the pellet was re-suspended again in membrane preparation buffer, homogenized for a second time and then centrifuged again as described above. The final cellular protein pellet was suspended in ice cold resuspension buffer (10 mM HEPES and 0.1 mM EDTA, pH 7.4), divided into aliquots, and stored at −80° C. until use.
(§3) Binding assays for [^35S]-GTPγS were performed in 96-well non-binding surface plates with a final volume of 200 μL. The test compounds were serial diluted in DMSO and added to assay plates using a Tecan D300E digital printer with a total volume of 0.4 μL. The control sphingosine-1-phosphate (S1P) was prepared separately by preparing a 400 μM stock solution from a 100 nmol pellet of S1P in 10 mM Na2CO3 with 2% β-cyclodextrin. The serial dilution of S1P was done using complete assay buffer (20 mM HEPES, 10 mM MgCl2, 100 mM NaCl, 1 mM EDTA, 0.1% fatty acid free bovine serum albumin [BSA], and 30 μg/mL saponin, pH7.4) and transferred to wells already containing 0.4 μL DMSO. All the wells were then loaded to a total volume of 40 μL of complete assay buffer, except the non-specific binding (NSB) wells. For NSB wells, 40 µL/well of 50 μM GTPγS (Sigma Aldrich, cat #G8634, St. Louis, MO) was added to wells containing 0.4 μL of DMSO. The assay was started by the addition of 120 μL/well of CHO—S1P receptor membrane solution containing 40 μg/mL of membrane protein, 16.67 μM guanosine diphosphate (GDP; Sigma Aldrich, cat #G7127, St. Louis, MO), and 2.5 mg/mL of WGA PVT SPA beads in complete buffer. Assay plates were then sealed and incubated at room temperature with gentle agitation for 30 minutes. Next, 40 μL/well of 1 nM of [^35S]-GTPγS (PerkinElmer, cat #NEG030X250UC, Waltham, MA) in basic assay buffer (20 mM HEPES, 10 mM MgCl2, 100 mM NaCl, and 1 mM EDTA, pH7.4) was added to the assay plates to yield a final concentration of […] and the plates were further incubated for 40 minutes at room temperature with gentle agitation. The assay was terminated by centrifugation of the plates at 1000 rpm for 3 minutes using an Eppendorf 5810R centrifuge (Eppendorf, Hamburg, Germany) and G protein bound radioactivity was quantitated using a MicroBeta2 microplate scintillation counter (PerkinElmer, Waltham, MA).

S1P1 = S1P1 (Homo sapiens, UniProt P21453); assay: [35S]-GTPγS binding assay, S1P1; assay type: biochemical; details: for Emax: control S1P, read-out: S1P1 % Efficacy
Sequence of S1P1 (P21453 whole entry, species assumed): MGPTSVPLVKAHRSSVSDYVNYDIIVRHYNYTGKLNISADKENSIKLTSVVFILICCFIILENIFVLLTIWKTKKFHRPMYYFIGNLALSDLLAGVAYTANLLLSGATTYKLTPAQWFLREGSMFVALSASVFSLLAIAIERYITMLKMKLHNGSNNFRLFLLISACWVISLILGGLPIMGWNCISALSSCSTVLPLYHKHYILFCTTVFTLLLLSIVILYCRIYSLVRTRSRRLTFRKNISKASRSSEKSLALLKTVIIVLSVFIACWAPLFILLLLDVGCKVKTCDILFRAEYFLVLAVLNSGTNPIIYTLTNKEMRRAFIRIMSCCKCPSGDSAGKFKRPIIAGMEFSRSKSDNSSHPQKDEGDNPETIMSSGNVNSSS
Method: as §1, §2, §3

[1] = membranes of CHO cells expressing recombinant S1P receptors, [35S]-GTPγS binding
[2] = membranes of CHO cells expressing recombinant S1P receptors, [35S]-GTPγS binding, read-out: S1P1 EC50

Sequence of S1P5 (Q9H228 whole entry, species assumed): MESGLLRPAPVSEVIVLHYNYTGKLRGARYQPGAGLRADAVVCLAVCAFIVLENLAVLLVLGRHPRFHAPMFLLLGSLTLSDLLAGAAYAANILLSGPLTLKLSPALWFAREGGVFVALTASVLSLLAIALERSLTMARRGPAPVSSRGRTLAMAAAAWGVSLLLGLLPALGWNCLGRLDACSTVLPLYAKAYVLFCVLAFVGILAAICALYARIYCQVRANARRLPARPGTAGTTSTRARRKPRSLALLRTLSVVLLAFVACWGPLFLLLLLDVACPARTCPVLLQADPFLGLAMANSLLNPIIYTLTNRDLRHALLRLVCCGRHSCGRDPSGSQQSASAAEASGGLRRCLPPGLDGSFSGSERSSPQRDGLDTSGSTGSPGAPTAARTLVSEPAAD

Row | Structure (SMILES) | Emax (S1P5) | EC50 (S1P1; [2]) | EC50 (S1P5) | Emax (S1P1; [1]) | EC50 (S1P1)
1 | CC(C)Oc1ccc(-c2nc(-c3cccc4c3CCC4=NOCCC(=O)O)no2)cc1C#N (stereo in doubt) [Compound 7, (E)-3-(((4-(5-(3-cyano-4-isopropoxyphenyl)-1,2,4-oxadiazol-3-yl)-2,3-dihydro-1H-inden-1-ylidene)amino)oxy)propanoic acid] | 29% | 336 nM | 30 nM | 89% | 
2 | CC(C)Oc1ccc(-c2nc(-c3cccc4c3CC/C4=N/OC(C)(C)C)no2)cc1C#N [Compound 5, (Z)-5-(3-(1-(tert-butoxyimino)-2,3-dihydro-1H-inden-4-yl)-1,2,4-oxadiazol-5-yl)-2-isopropoxybenzonitrile] | 79% | 20 nM | 78 nM | 98% | 
3 | CC(C)Oc1ccc(-c2nc(-c3cccc4c3CC/C4=N/OCC(=O)O)no2)cc1C#N [Compound 6, (Z)-2-(((4-(5-(3-cyano-4-isopropoxyphenyl)-1,2,4-oxadiazol-3-yl)-2,3-dihydro-1H-inden-1-ylidene)amino)oxy)acetic acid] |  |  | > 2000 nM | 90% | 19 nM
4 | CC(C)Oc1ccc(-c2nc(-c3cccc4c3CC/C4=N/O)no2)cc1C#N [Compound 10, (Z)-5-(3-(1-(hydroxyimino)-2,3-dihydro-1H-inden-4-yl)-1,2,4-oxadiazol-5-yl)-2-isopropoxybenzonitrile] | 58% | 4 nM | 6 nM | 97% | 

Continued, in another order:

Row | Emax (S1P5) | EC50 (S1P1; [2]) | Structure (SMILES) | EC50 (S1P5) | Emax (S1P1; [1]) | EC50 (S1P1)
5 | 64% | 8 nM | CC(C)Oc1ccc(-c2nc(-c3cccc4c3CC/C4=N/OCCN(C)C)no2)cc1C#N [Compound 8] | 15 nM | 90% | 
6 | 85% | 6 nM | CC(C)Oc1ccc(-c2nc(-c3cccc4c3CC/C4=N/OCCCC(=O)O)no2)cc1C#N [Compound 11, (Z)-4-(((4-(5-(3-cyano-4-isopropoxyphenyl)-1,2,4-oxadiazol-3-yl)-2,3-dihydro-1H-inden-1-ylidene)amino)oxy)butanoic acid] | 80 nM | 85% | 

Source: patent US12364686B2, “Sphingosine 1 phosphate receptor modulators” (RECEPTOS LLC, priority 2020, dated 2025)
